These results are taken from BindingDB's records for patent US11827644 (Suzhou Genhouse Pharmaceutical, 2023).

This test addresses T1, Tyrosine-protein phosphatase non-receptor type 11 (Homo sapiens, UniProt Q06124).
T1 sequence (Q06124 whole entry): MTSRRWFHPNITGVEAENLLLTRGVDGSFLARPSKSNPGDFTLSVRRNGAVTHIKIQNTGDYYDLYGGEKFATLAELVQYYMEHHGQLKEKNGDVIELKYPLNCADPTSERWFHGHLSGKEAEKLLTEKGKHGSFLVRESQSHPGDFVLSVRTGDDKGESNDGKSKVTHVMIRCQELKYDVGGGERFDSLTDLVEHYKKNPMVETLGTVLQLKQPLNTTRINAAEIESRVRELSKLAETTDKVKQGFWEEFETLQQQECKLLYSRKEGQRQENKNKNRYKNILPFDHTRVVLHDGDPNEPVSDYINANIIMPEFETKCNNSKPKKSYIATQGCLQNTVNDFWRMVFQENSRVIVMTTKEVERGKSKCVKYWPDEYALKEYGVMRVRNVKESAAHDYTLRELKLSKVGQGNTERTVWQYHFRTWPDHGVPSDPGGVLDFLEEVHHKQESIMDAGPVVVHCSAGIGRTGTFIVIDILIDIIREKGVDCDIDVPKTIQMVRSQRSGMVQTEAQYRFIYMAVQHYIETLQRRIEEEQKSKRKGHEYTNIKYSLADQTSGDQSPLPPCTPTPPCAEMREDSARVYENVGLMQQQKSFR
Briefly: SHP2 Allosteric Inhibition Assay. The protocol:
The phosphatase reaction was conducted in 384-well black polystyrene plates (Corning, Cat #3575) with flat bottom, low edge and non-binding surface at room temperature and 25 μl final volume of the following buffer condition: 60 mM HEPES, pH 7.2, 75 mM NaCl, 75 mM KCl, 1 mM EDTA, 0.05% P-20, 5 mM DTT.The following experiments were conducted to monitor the SHP2 inhibition by the compounds (at concentrations of 0.0003-100 μM) in this invention:Wherein, incubate 0.5 nM SHP2 with 0.5 μM peptide IRS1_pY1172 (dPEG8) pY1222 (sequence: H2N-LN (pY) IDLDLV (dPEG8) LST (pY) ASINFQK-amide) (SEQ ID NO: 1) (WO2016/203406A1). After incubation at 25° C. for 30-60 minutes, the alternative substrate DiFMUP (Invitrogen, cat #D6567) was added to the reaction and incubated at 25° C. for 30 minutes. The reaction was then […] by adding 5 μL of a 160 μM bpV (Phen) solution (Enzo Life Sciences cat #ALX-270-204). The fluorescence signal was monitored using a microplate reader (VARIOSKAN LUX, Thermo) with excitation and emission wavelengths of 340 nm and 450 nm, respectively. The inhibitory dose-response curve is analyzed using a standardized IC50 regression curve based on control-based normalization.

`C[C@@H]1OCC2(CCN(c3cnc(Sc4cccc(-c5cscn5)c4Cl)cn3)CC2)[C@@H]1N` [US11827644, Example 33] yielded an IC50 of 2.62 nM.

A word on the IC50: it is the concentration that gives 50% inhibition.
